Results taken from patent US10647688B2, “Compounds, synthesis method thereof and use of same in medicine and in cosmetics” (GALDERMA RESEARCH & DEVELOPMENT, priority 2014, dated 2020).

Key:
Assay type in all cases: cell-based
[1] = target: T1, RARα (Homo sapiens, UniProt P10276); experiment: Transactivation reporter test (luciferase) in HeLa ERE Luc-hRAR cells, RARα; conditions: for EC50: HeLa ERE Luc-hRAR cells, dose-response 10000 nM-0.04 nM, 18 hours incubation; for RARα Comments: agonist type (total/partial); for RARα Efficacy: normalized to basal control and maximum efficacy control CD0193 100 nM
T1 construct: expressed in transfected cells; line from Prof; Ballaguer, INSERM 439, Montpellier
T1 sequence (P10276 183-417 limits assumed): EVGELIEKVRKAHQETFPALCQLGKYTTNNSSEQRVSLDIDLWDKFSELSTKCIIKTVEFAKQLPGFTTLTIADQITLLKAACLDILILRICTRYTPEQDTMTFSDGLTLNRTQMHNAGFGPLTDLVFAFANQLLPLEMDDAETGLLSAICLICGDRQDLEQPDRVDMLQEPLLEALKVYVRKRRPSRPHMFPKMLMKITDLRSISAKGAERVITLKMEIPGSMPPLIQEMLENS
Experimental: (§1) The activity of our molecules on the RAR is measured using a recombinant line expressing the ligand-biding domain (LBD) of RAR fused with the DNA binding domain (DBD) of the estrogen receptors. The specific transactivation of the receptor on the receptor estrogen response element (ERE) leads to transcription of luciferase. The expression of this reporter gene is quantified by luminescence after addition of its substrate, luciferin.
(§2) This line was produced by Prof. Ballaguer (INSERM 439, Montpellier) after stable transfection of HeLa by ERE-βGlob-Luc-SV-Neo and RAR(α, β, γ)-ER-DBD-puro plasmids.
(§3) The compounds are evaluated by dose-response (10000 nM-0.04 nM) normalized relative to a basal control and a maximum efficacy control (CD0193, reference agonist with 100 nM saturating concentration): Y=((X−0%)/(100%−0%))*100.
(§4) The affinity (EC50 in nM) and efficacy (in %) are measured using the XLfit (IDBS) software according to a four-parameter nonlinear regression (model 205).
(§5) HeLa ERE Luc-hRAR cells are inoculated on 96 well microplates (10,000 cell/100 μL). After 4 hours of incubation at 37° C./5% CO2, they are treated with 5 μL of 20× products (0.1 final DMSO).

[2] = target: T2, RARβ (Homo sapiens, UniProt P10826); experiment: Transactivation reporter test (luciferase) in HeLa ERE Luc-hRAR cells, RARβ; conditions: for EC50: HeLa ERE Luc-hRAR cells, dose-response 10000 nM-0.04 nM, 18 hours incubation; for RARβ Comments: agonist type (total/partial); for RARβ Efficacy (%): normalized to basal control and maximum efficacy control CD0193 100 nM
T2 construct: expressed in transfected cells; line from Prof; Ballaguer, INSERM 439, Montpellier
T2 sequence (P10826 183-417 limits assumed): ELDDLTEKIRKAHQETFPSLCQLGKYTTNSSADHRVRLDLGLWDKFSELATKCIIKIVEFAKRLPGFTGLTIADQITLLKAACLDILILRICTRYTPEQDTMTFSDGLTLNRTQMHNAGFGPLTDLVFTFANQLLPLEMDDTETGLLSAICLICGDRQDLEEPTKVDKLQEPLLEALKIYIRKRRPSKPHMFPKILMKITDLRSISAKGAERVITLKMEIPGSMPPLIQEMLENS
Experimental: as §1, §2, §3, §4, §5

[3] = target: T3, RARγ (Homo sapiens, UniProt P13631); experiment: Transactivation reporter test (luciferase) in HeLa ERE Luc-hRAR cells, RARγ; conditions: for EC50: HeLa ERE Luc-hRAR cells, dose-response 10000 nM-0.04 nM, 18 hours incubation; for RARγ Comments: agonist type (total/partial); for RARγ Efficacy (%): normalized to basal control and maximum efficacy control CD0193 100 nM
T3 construct: expressed in transfected cells; line from Prof; Ballaguer, INSERM 439, Montpellier
T3 sequence (P13631 185-419 limits assumed): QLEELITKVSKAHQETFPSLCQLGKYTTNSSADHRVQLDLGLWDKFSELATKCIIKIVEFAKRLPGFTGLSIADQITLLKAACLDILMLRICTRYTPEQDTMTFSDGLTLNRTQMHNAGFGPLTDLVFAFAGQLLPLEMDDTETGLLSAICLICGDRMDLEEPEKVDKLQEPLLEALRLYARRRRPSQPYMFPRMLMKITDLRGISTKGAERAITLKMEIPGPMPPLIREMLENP
Experimental: as §1, §2, §3, §4, §5

SMILES	EC50 [1] [nM]	RARα Comments [1]	RARα Efficacy [1] [%]	EC50 [2] [nM]	RARβ Comments [2]	RARβ Efficacy (%) [2] [%]	EC50 [3] [nM]	RARγ Comments [3]	RARγ Efficacy (%) [3] [%]
COc1ccc(-c2cnc(-c3ccc(C(=O)O)cc3)s2)cc1C(C)(C)C [4-[5-(3-tert-butyl-4-methoxy-phenyl)-thiazol-2-yl]-benzoic acid]	109	partial agonist	53	164	partial agonist	46	66	partial agonist	40
CC(C)(C)c1cc(-c2noc(-c3ccc(C(=O)O)cc3)n2)ccc1O [4-[3-(3-tert-butyl-4-hydroxy-phenyl)-[1,2,4]oxadiazol-5-yl]-benzoic acid]	107	Total	106	3	Total agonist	110	2.4	Total	110
CC1(C)CCC(C)(C)c2cc(-c3cnc(-c4ccc(C(=O)O)cc4)s3)ccc21 [4-[5-(5,5,8,8-tetramethyl-5,6,7,8-tetrahydro-naphthalen-2-yl)-thiazol-2-yl]-benzoic acid]	9790	Total	64	52	Total agonist	110	162	Total	78
CCCOc1ccc(-c2cnc(-c3ccc(C(=O)O)cc3)s2)cc1C1(C)CCCCC1 [4-{5-[3-(1-methyl-cyclohexyl)-4-propoxy-phenyl]-thiazol-2-yl}-benzoic acid]	3170	Total	68	635	Total agonist	90	1030	Total	74

Continued, values first:

EC50 [1] [nM]	RARα Comments [1]	RARα Efficacy [1] [%]	EC50 [2] [nM]	RARβ Comments [2]	RARβ Efficacy (%) [2] [%]	EC50 [3] [nM]	RARγ Comments [3]	RARγ Efficacy (%) [3] [%]	SMILES
90	Total	80	0.56	Total agonist	107	0.9	Total	102	CCOCOc1ccc(-c2noc(-c3ccc(C(=O)O)cc3)n2)cc1C1(C)CCCCC1 [4-{3-[4-ethoxymethoxy-3-(1-methyl-cyclohexyl)-phenyl]-[1,2,4]oxadiazol-5-yl}-benzoic acid]
255	Total	105	3.8	Total agonist	92	9.3	Total	96	CCOc1ccc(-c2noc(-c3ccc(C(=O)O)cc3)n2)cc1C(C)(C)C [4-[3-(3-tert-butyl-4-ethoxy-phenyl)-[1,2,4]oxadiazol-5-yl]-benzoic acid]
650	Total	104	6.2	Total agonist	95	10	Total	88	CCOCOc1ccc(-c2noc(-c3ccc(C(=O)O)cc3)n2)cc1C(C)(C)C [4-[3-(3-tert-butyl-4-ethoxymethoxy-phenyl)-[1,2,4]oxadiazol-5-yl]-benzoic acid]
